Experimental data taken from paper PMC6943623, “Antileishmanial Compounds Isolated from Psidium Guajava L. Using a Metabolomic Approach” (Molecules, 2019).
Converted amounts (≈) assume the structure as drawn. Read-outs that look alike come from different tables or passages of the source.

Key:
[1] = test system: L. infantum promastigotes; assay: Antileishmanial activity on promastigotes (luciferase assay); format: cell-based, L. infantum strain MHOM/MA/67/ITMAP-263; details: Leishmania infantum, 72 h, 24 °C, mean of three independent experiments
[2] = test system: five human cancer cell lines (HCT116, CCRFCEM, DU145, Huh7, and A549); set-up: method as in PMID 28578580; details: read-out: IC50, antitumor activity; cited from earlier work
[3] = test system: L. infantum axenic amastigotes; assay: Antileishmanial activity on axenic amastigotes (luciferase assay); format: cell-based, L. infantum strain MHOM/MA/67/ITMAP-263; details: for IC50 / IC90: Leishmania infantum; for IC50 / Axenic Amastigotes IC50: 48 h, L. infantum axenic amastigotes, 37 °C; for IC90: L. infantum amastigotes, concentration used in the ROS assay; for IC50 when associated with mannitol, compared with IC50 alone: mannitol 50 µM, axenic amastigotes
Leishmania amazonensis = test system: Leishmania amazonensis; set-up: method as in PMID 31269109; details: cited from earlier work
L. infantum amastigotes = assay: Intracellular ROS generation, H2DCFDA assay; format: cell-based; details: axenic amastigotes treated 24 h at IC50 and IC90 concentrations
Description: The cells were then centrifuged, washed with PBS, resuspended in PBS, and incubated for 30 min in the dark with 10 µM H2DCFDA at 37 °C. ROS were measured as an increase in fluorescence caused by the conversion of non-fluorescent dye to highly fluorescence […] (excitation wavelength 490 nm, emission wavelength 525 nm) in a fluorescence microplate reader (SAFAS Xenius XM, Monaco, France).

[4] = Cytotoxicity evaluation, MTT assay; format: cell-based; details: mouse, J774A.1 macrophage cells, mean of three independent experiments, read-out: J774A1 CC50
Description: After incubation for 24 h, 100 µL of medium with various concentrations of jacoumaric acid, carasolic acid, and appropriate controls (doxorubicin and amphotericin B, purchased from Sigma-Aldrich) were added and the plates were incubated for 72 h at 37 °C and 5% CO2. Each 96-well plate was then examined under a microscope to detect possible precipitate formation before the medium was aspirated from the well. 100 µL of MTT solution (0.5mg/mL in DMEM) was then added to each well. Cells were incubated for 2 h at 37 °C and 5% CO2. Then, the MTT solution was removed and DMSO (100 µL/well) was added to dissolve the resulting formazan crystals. Plates were shaken vigorously (300 rpm) for 5 min. The absorbance was measured at 570 nm with a microplate spectrophotometer (Eon Bio Tek, Winooski, VT, USA). DMSO was used as blank. […] (San Diego, CA, USA). CC50 values represent the mean value calculated from three independent experiments.

Leishmania [5] = test system: Leishmania; set-up: method as in PMID 31571946; details: cited from earlier work
L. infantum amastigote = test system: L. infantum amastigote; set-up: method as in PMID 29201107; details: cited from earlier work
Leishmania [6] = test system: Leishmania; set-up: method as in PMID 15070160; details: cited from earlier work
Pyricularia pryzae = details: cited from earlier work

C/C1=C\CC(C)(C)/C=C/CC2(C)Oc3c(C=O)c(O)c(C=O)c(O)c3C(c3ccccc3)C2CC1 (stereo not drawn) [Guajadial B (5), Guajadial B]
IC50 [1]: > 50 mg/L | IC50 [2]: 0.15 µM | IC50 [3]: > 50 mg/L

C=C1CC/C=C(\C)CC[C@@H]2[C@@H]1CC2(C)C [E-caryophyllene]
IC50, antileishmanial (Leishmania amazonensis): 10.7 ± 0.6 mg/L (≈ 52.4 µM)

CC1CCC2(C(=O)O)CCC3(C)C(=CCC4C5(C)CC(O)C(OC(=O)/C=C/c6ccc(O)cc6)C(C)(C)C5CCC43C)C2C1C (stereo not drawn) [Jacoumaric acid (2), Jacoumaric acid]
IC50 [1]: > 50 mg/L | Production of ROS (H2DCFDA fluorescence) compared to the control (L. infantum amastigotes): significantly decreased | Axenic Amastigotes IC50 [3]: 1.32 ± 0.59 mg/L | IC50 [3]: 1.32 ± 0.59 mg/L (≈ 2.13 µM) | IC90 [3]: 1.9 mg/L (≈ 3.07 µM) | IC50 when associated with mannitol, compared with IC50 alone [3]: no significant differences | CC50 at 72 h [4]: 12.9 ± 2.5 mg/L (≈ 20.8 µM)

spergulin-A
IC50, antileishmanial (Leishmania [5]): 6.22 mg/L

CC1(C)CC[C@]2(C(=O)O)CC[C@]3(C)C(=CC[C@@H]4[C@@]5(C)C[C@@H](O)[C@H](O)C(C)(C)[C@@H]5CC[C@]43C)[C@@H]2C1 [maslinic, maslinic acid]
IC50 on L. infantum amastigote (L. infantum amastigote): 0.99 ± 0.09 mg/L (≈ 2.09 µM)

C[C@H]1[C@H](C)CC[C@]2(C(=O)O)CC[C@]3(C)C(=CC[C@@H]4[C@@]5(C)C[C@@H](O)[C@H](O)C(C)(C)[C@@H]5CC[C@]43C)[C@H]12 [Corosolic acid (1), Corosolic acid (2α-hydroxyursolic acid)]
IC50 [1]: 18.4 ± 1.2 mg/L (≈ 39 µM) | Production of ROS (H2DCFDA fluorescence) compared to the control (L. infantum amastigotes): significantly decreased | Axenic Amastigotes IC50 [3]: 1.01 ± 0.06 mg/L | IC50 [3]: 1.06 mg/L (≈ 2.24 µM) | IC90 [3]: 1.43 mg/L (≈ 3.03 µM) | IC50 when associated with mannitol, compared with IC50 alone [3]: no significant differences | CC50 at 72 h [4]: 5.77 ± 0.5 mg/L (≈ 12.2 µM)

COc1cccc2c1C(=O)c1c(O)c3c(c(O)c1C2=O)C[C@@](O)(C(=O)CO)C[C@@H]3O[C@H]1C[C@H](N)[C@H](O)[C@H](C)O1 [Doxorubicin, reference compound]
CC50 at 72 h [4]: 0.04 ± 0.004 mg/L (≈ 0.0736 µM)

CC1(C)CC[C@]2(C(=O)O)CC[C@]3(C)C(=CC[C@@H]4[C@@]5(C)CC[C@H](O)C(C)(C)[C@@H]5CC[C@]43C)[C@@H]2C1 [oleanoic acid]
IC50 on L. infantum amastigote (L. infantum amastigote): 2.91 ± 0.066 mg/L (≈ 6.37 µM)

C[C@H]1[C@H](C)CC[C@]2(C(=O)O)CC[C@]3(C)C(=CC[C@@H]4[C@@]5(C)CC[C@H](O)C(C)(C)[C@@H]5CC[C@]43C)[C@H]12 [ursolic acid]
IC50, antileishmanial (Leishmania [6]): 27 mg/L (≈ 59.1 µM)

C[C@@H]1[C@H](O)[C@@H](C)/C=C/C=C/C=C/C=C/C=C/C=C/C=C/[C@H](O[C@@H]2O[C@H](C)[C@@H](O)[C@H](N)[C@@H]2O)C[C@@H]2O[C@](O)(C[C@@H](O)C[C@@H](O)[C@H](O)CC[C@@H](O)C[C@@H](O)CC(=O)O[C@H]1C)C[C@H](O)[C@H]2C(=O)O [Amphotericin B, reference compound]
IC50 [1]: 0.09 ± 0.01 mg/L (≈ 0.0974 µM) | IC50 [3]: 0.09 ± 0.04 mg/L (≈ 0.0974 µM) | CC50 at 72 h [4]: 5.79 ± 0.65 mg/L (≈ 6.27 µM)

CC1(C)CCC2(C(=O)O)CCC3(C)C(=CCC4C5(C)CC(O)C(O)C(C)(C(=O)O)C5CCC43C)C2C1 (stereo not drawn) [Medicagenic acid (6), Medicagenic acid]
IC50 [1]: > 50 mg/L | minimum fungicidal concentration (MFC) (Pyricularia pryzae): 30 mg/L (≈ 59.7 µM) | minimum inhibitory concentration (MIC) (Pyricularia pryzae): 10 mg/L (≈ 19.9 µM) | IC50 [3]: > 50 mg/L
